Results taken from patent US10519177B2, “Heterocyclic compounds and uses thereof” (Plexxikon Inc., priority 2013, dated 2019).

Assays:
BRD4-BD1 (44-164) = BRD4-BD1 (44-164) (Homo sapiens (Human), UniProt O60885); assay: Alphascreen binding assay BRD4-BD1; details: BRD4(1) H4; read-out: Biochemical activity (IC50 μM) BRD4(1) H4
How it was run: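 AlphaScreen signal (nickel acceptor, streptavidin donor beads, 7.5 µg/ml each, read 30 min after addition) reports displacement of biotin-H4 K5/K8/K12/K16-acetyl peptide from His-BRD4 BD1 (44-164) or tandem BD12 (1-477).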

BRD4-BD12 (1-477) = BRD4-BD12 (1-477) (Homo sapiens (Human), UniProt O60885); assay: Alphascreen binding assay BRD4-BD12; details: BRD4(1 2) H4; read-out: Biochemical activity (IC50 μM) BRD4(1 2) H4
How it was run: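 In this competition format, compounds displace a biotinylated tetra-acetyl H4 peptide from E. coli-expressed human BRD4 bromodomain constructs captured on nickel chelate beads. The reaction runs at pH 7.5 with 2 mM DTT and detergent for 1 h at room temperature before a 30 min bead step.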

MV-4-11 cells = assay: Oncology cell growth assay MV-4-11 (CellTiter Glo); assay type: cell-based; details: Homo sapiens, MV4-11, 72 h; read-out: Cell activity (IC50 μM) MV-4-11 3d-Growth
How it was run: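 Growth read by CellTiter Glo luminescence after 72 h compound treatment of MLL-AF4-bearing MV-4-11 cells (3000/well). Titration: 8 points, 1:3 steps, maximum 10 μM, 0.2% DMSO final. Data normalized to DMSO wells, four-parameter fit gives pIC50.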

bromodomain = assay: at least one of the bromodomain cell assays of Example 57; assay type: cell-based; details: at least one of the bromodomain cell assays described in Example 57; read-out: IC50 in at least one of the bromodomain cell assays

Structure (SMILES)	IC50 (BRD4-BD1 (44-164)) [µM]	IC50 (BRD4-BD12 (1-477)) [µM]	IC50 (MV-4-11 cells) [µM]	IC50 (bromodomain) [nM]
Cc1noc(C)c1-c1cnc2c(-c3cnn(C)c3)cn(C(CC#N)C3CC3)c2c1 (centres unmarked) [P-0316, 3-cyclopropyl-3-[6-(3,5-dimethylisoxazol-4-yl)-3-(1-methylpyrazol-4-yl)pyrrolo[3,2-b]pyridin-1-yl]propanenitrile]	< 1	< 1	< 1	< 10000
Cc1noc(C)c1-c1cnc2c(Br)cn(C(CC#N)C3CC3)c2c1 (centres unmarked) [P-0308, 3-[3-bromo-6-(3,5-dimethylisoxazol-4-yl)pyrrolo[3,2-b]pyridin-1-yl]-3-cyclopropxl-propanenitrile]	< 1	< 1	< 1	< 10000
COc1ccc(-c2cnc3ccn(CC4CCC(F)(F)CC4)c3c2)cn1 [P-0312, 1-((4,4-difluorocyclohexyl)methyl]-6-(6-methoxy-3-pyridyl)pyrrolo[3,2-b]pyridine]	1 to 10	10 to 200	10 to 200	< 10000
Cc1onc(NC(=O)OC(C)(C)C)c1-c1cnc2ccn(CC3CCC(F)(F)CC3)c2c1 [P-0323, tert-butyl N-[4-[1-[(4,4-difluorocyclohexyl)methyl]pyrrolo[3,2-b]pyridin-6-yl]-5-methyl-isoxazol-3-yl]carbamate]	10 to 200	< 1	10 to 200	< 10000
Cc1noc(C)c1-c1cnc2c(-c3cnn(CC(F)(F)F)c3)cn(C(CC#N)C3CC3)c2c1 (centres unmarked) [P-0315, 3-cyclopropyl-3-[6-(3,5-dimethylisoxazol-4-yl)-3-[1-(2,2,2-trifluoroethyl)pyrazol-4-yl]pyrrolo[3,2-b]pyridin-1-yl]propanenitrile]	< 1	< 1	< 1	< 10000
Cc1noc(C)c1-c1cnc2c(-c3cnn(CCC#N)c3)cn(CC3CCC(F)(F)CC3)c2c1 [P-0298, 3-[4-[1-[(4,4-difluorocyclohexyl)methyl]-6-(3,5-dimethylisoxazol-4-yl)pyrrolo[3,2-b]pyridin-3-yl]pyrazol-1-yl]propanenitrile]	< 1	< 1	< 1	< 10000
Cc1noc(C)c1-c1cnc2c(-c3c(C)nn(C)c3C)cn(C(C)c3ccccc3)c2c1 (centres unmarked) [P-0300, 3,5-dimethyl-4-[1-(1-phenylethyl)-3-(1,3,5-trimethylpyrazol-4-yl)pyrrolo[3,2-b]pyridin-6-yl]isoxazole]	< 1	< 1	< 1	< 10000
Cc1noc(C)c1-c1cnc2c(I)cn(C(CC#N)C3CC3)c2c1 (centres unmarked) [P-0309, 3-cyclopropyl-3-[6-(3,5-dimethylisoxazol-4-yl)-3-iodo-pyrrolo[3,2-b]pyridin-1-yl]propanenitrile]	< 1	< 1	< 1	< 10000
Cc1nc(C)c(-c2cnc3ccn(CC4CCC(F)(F)CC4)c3c2)s1 [P-0294, 5-[1-[(4,4-difluorocyclohexyl)methyl]pyrrolo[3,2-b]pyridin-6-yl]-2,4-dimethyl-thiazole]	10 to 200	< 1	1 to 10	< 10000
Cc1nnn(C)c1-c1cnc2ccn(CC3CCC(F)(F)CC3)c2c1 [P-0291, l-[(4,4-difluorocyclohexyl)methyl]-6-(3,5-dimethyltriazol-4-yl)pyrrolo[3,2-b]pyridine]	< 1	10 to 200	1 to 10	< 10000
Cc1ccc(-c2cn(C(C)c3ccccc3)c3cc(-c4c(C)noc4C)cnc23)cn1 (centres unmarked) [P-0272, 3,5-dimethyl-4-[3-(6-methyl-3-pyridyl)-1-(1-phenylethyl)pyrrolo[3,2-b]pyridin-6-yl]isoxazole]	< 1	< 1	< 1	< 10000
